Measurements from the NIST ThermoML archive (doi:10.1016/j.tca.2014.11.009).
± gives the expanded uncertainty stated by the source.

Key:
[1] = 100 kPa, Liquid; for speed of sound: Frequency=3 MHz, Sing-around technique in a fixed-path interferometer; for mass density: Vibrating tube method
[2] = xn = mol fraction of the nth substance listed; settings: 100 kPa, Liquid, x2 = 0; for speed of sound: Frequency=3 MHz, Sing-around technique in a fixed-path interferometer; for mass density: Vibrating tube method

SMILES | speed of sound ([1]; 283.15 K) | mass density ([1]; 283.15 K) | speed of sound ([1]; 293.15 K) | mass density ([1]; 293.15 K) | speed of sound ([1]; 303.15 K) | mass density ([1]; 303.15 K) | speed of sound ([1]; 313.15 K) | mass density ([1]; 313.15 K) | speed of sound ([2]; 283.15 K) | mass density ([2]; 283.15 K) | speed of sound ([2]; 293.15 K) | mass density ([2]; 293.15 K) | speed of sound ([2]; 303.15 K) | mass density ([2]; 303.15 K) | speed of sound ([2]; 313.15 K) | mass density ([2]; 313.15 K)
CCC(C)O (stereo unspecified) [butan-2-ol] | 1268.4 ± 1.6 m/s | 815.39 ± 0.24 kg/m3 | 1232.4 ± 1.6 m/s | 807.34 ± 0.24 kg/m3 | 1196.1 ± 1.6 m/s | 798.99 ± 0.24 kg/m3 | 1159.5 ± 1.6 m/s | 790.28 ± 0.24 kg/m3 | – | – | – | – | – | – | – | –
O=Cc1ccco1 [2-furaldehyde] | 1495.4 ± 1.6 m/s | 1169.93 ± 0.37 kg/m3 | 1458.8 ± 1.6 m/s | 1159.33 ± 0.36 kg/m3 | 1422.5 ± 1.6 m/s | 1148.69 ± 0.35 kg/m3 | 1386.5 ± 1.6 m/s | 1138.01 ± 0.34 kg/m3 | – | – | – | – | – | – | – | –
CCO [ethanol] + O=Cc1ccco1 | – | – | – | – | – | – | – | – | 1197.3 ± 1.6 m/s | 798.51 ± 0.24 kg/m3 | 1162.5 ± 1.6 m/s | 789.99 ± 0.24 kg/m3 | 1128.3 ± 1.6 m/s | 781.38 ± 0.24 kg/m3 | 1094.6 ± 1.6 m/s | 772.64 ± 0.24 kg/m3
CCCCO [butan-1-ol] + O=Cc1ccco1 | – | – | – | – | – | – | – | – | 1291.4 ± 1.6 m/s | 817.21 ± 0.24 kg/m3 | 1257.5 ± 1.6 m/s | 809.65 ± 0.24 kg/m3 | 1223.6 ± 1.6 m/s | 802 ± 0.24 kg/m3 | 1190.2 ± 1.6 m/s | 794.21 ± 0.24 kg/m3
CCO [ethanol] | 1197.3 ± 1.6 m/s | 798.51 ± 0.24 kg/m3 | 1162.5 ± 1.6 m/s | 789.99 ± 0.24 kg/m3 | 1128.3 ± 1.6 m/s | 781.38 ± 0.24 kg/m3 | 1094.6 ± 1.6 m/s | 772.64 ± 0.24 kg/m3 | – | – | – | – | – | – | – | –
CCC(C)O (stereo unspecified) [butan-2-ol] + O=Cc1ccco1 | – | – | – | – | – | – | – | – | 1268.4 ± 1.6 m/s | 815.39 ± 0.24 kg/m3 | 1232.4 ± 1.6 m/s | 807.34 ± 0.24 kg/m3 | 1196.1 ± 1.6 m/s | 798.99 ± 0.24 kg/m3 | 1159.5 ± 1.6 m/s | 790.28 ± 0.24 kg/m3
CCCCO [butan-1-ol] | 1291.4 ± 1.6 m/s | 817.21 ± 0.24 kg/m3 | 1257.5 ± 1.6 m/s | 809.65 ± 0.24 kg/m3 | 1223.6 ± 1.6 m/s | 802 ± 0.24 kg/m3 | 1190.2 ± 1.6 m/s | 794.21 ± 0.24 kg/m3 | – | – | – | – | – | – | – | –
